Assay results reported in article PMC6273065, “Synthesis, Molecular Modelling and Biological Evaluation of Novel Heterodimeric, Multiple Ligands Targeting Cholinesterases and Amyloid Beta” (Molecules, 2016).

Legend:
[1] = PAMPA-BBB; for Prediction of BBB penetration: class from log Pe; for Log Pe: 2 h at 37 °C, means of two replicates
Experimental: For anti-Alzheimer drug candidates, the ability to cross the blood–brain barrier and to enter the central nervous system (CNS) is crucial to achieve their pharmacological target and activity.
The BBB-PAMPA Explorer Test System was purchased from pION Inc. The in vitro permeability through BBB-1 lipid membrane was determined for 7 commercial drugs and the tested compounds. The compounds were dissolved in DMSO (10 mM stock solution) and diluted with Prisma HT buffer (5 µL/1 mL). Then, the […] 96-well microplate was filled with solution of the tested compounds in buffer (200 µL/well). The filter membrane in acceptor 96-well microplate was impregnated with BBB-1 lipid solution (5 µL/well) and the acceptor plate was filled with Brain Sink Buffer (200 µL/well). The acceptor plate was carefully placed on the donor plate to form a sandwich that was left undisturbed for 2 h at 37 °C. After incubation, the donor plate was carefully removed. The concentration of compounds in the acceptor, the donor, and the reference wells were measured using EnSpire Multimode Microplate Reader (PerkinElmer).

EqBuChE = target: T1, EqBuChE (Equus caballus, UniProt P81908); experiment: biochemical
T1 construct: BuChE from equine serum (EqBuChE, Sigma–Aldrich); purchased Sigma–Aldrich; host or cells: equine serum
T1 sequence (P81908 whole entry): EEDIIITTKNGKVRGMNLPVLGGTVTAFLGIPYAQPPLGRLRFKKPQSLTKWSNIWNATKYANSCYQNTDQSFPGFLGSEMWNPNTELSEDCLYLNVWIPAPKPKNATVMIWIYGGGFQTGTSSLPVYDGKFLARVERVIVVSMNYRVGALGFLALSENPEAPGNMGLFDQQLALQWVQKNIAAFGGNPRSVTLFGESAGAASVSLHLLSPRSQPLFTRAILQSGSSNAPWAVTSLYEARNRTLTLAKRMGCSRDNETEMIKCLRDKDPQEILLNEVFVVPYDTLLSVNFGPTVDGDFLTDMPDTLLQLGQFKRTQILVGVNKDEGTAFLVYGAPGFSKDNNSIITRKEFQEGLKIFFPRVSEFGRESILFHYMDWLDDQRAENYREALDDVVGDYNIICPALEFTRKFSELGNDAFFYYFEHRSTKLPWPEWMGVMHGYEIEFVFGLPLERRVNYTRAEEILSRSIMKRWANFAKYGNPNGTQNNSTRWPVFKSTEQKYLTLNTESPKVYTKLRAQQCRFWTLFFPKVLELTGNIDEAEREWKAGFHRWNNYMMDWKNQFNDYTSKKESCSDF
Experimental: (§1) Ellman’s method was used to determine the activity of the synthesized compounds against AChE from electric eel (Electrophorus electricus, EeAChE) and BuChE from equine serum (EqBuChE).
(§2) All assays were performed in 0.1 M phosphate buffer pH 8.0. The tested compounds or water in a blank sample (25 µL) were incubated with the enzyme (20 µL) for 5 min at 25 °C in buffer (765 µL) prior to starting the reaction. Then, DTNB (20 µL) and ATC (20 µL) were added. […] Each condition was measured in triplicate. The percentages of enzyme inhibition were calculated from the equation 100%—Ai/A0 × 100%, where Ai is the absorbance of a sample with an inhibitor and A0 is the absorbance of a blank sample (100% activity of the enzyme). The IC50 values were calculated using GraphPad Prism 5. Data is expressed as mean ± SEM.

EeAChE = target: T2, EeAChE (Electrophorus electricus, UniProt O42275); experiment: biochemical; assay type: biochemical; settings: for EeAChE inhibitory activity in words: Ellman's assay
T2 construct: purchased Sigma–Aldrich
T2 sequence (O42275 24-633): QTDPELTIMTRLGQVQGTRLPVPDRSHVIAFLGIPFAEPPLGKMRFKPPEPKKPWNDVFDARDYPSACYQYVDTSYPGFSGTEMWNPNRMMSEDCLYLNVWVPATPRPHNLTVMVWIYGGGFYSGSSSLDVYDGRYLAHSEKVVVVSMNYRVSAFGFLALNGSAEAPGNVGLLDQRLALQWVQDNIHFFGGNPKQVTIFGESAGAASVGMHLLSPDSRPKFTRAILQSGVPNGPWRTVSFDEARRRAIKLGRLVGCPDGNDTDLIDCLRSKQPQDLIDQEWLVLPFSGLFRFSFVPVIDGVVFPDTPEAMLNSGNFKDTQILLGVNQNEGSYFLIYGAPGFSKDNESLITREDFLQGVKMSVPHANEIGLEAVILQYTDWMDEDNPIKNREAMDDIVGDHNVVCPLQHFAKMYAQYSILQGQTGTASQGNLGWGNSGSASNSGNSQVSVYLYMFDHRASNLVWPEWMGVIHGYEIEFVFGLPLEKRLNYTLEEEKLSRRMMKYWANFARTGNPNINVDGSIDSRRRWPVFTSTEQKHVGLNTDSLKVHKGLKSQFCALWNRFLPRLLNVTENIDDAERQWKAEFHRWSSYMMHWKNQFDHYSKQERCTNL
Experimental: as §1, §2

Aβ1–42 = target: T3, Aβ1–42 (Homo sapiens, UniProt P05067); experiment: Thioflavin-T fluorometric assay of self-induced Aβ1–42 aggregation; assay type: biochemical; settings: 10 µM compound, 1.5 µM Aβ1–42; mean ± SD; <10 = defined as not active; read-out: Aβ1–42 Aggreg. % of inhibition
T3 construct: Recombinant human HFIP-pretreated Aβ1–42 peptide; purchased Merck Millipore Lot number 2387442
T3 sequence (P05067 672-713): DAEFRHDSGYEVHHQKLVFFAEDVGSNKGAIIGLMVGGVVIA
From the text: Mechanisms of Aβ aggregation remain unclear. Besides the self-induced assembly of Aβ, several other factors affect its aggregation, including metal ions, AChE [45], and oxidative stress. Therefore, we evaluated our compounds using the most versatile and commonly used Aβ1–42 aggregation Thioflavin T assay. Seven structurally diverse compounds were selected (one from each subseries) to test their ability to inhibit self-induced Aβ1–42 aggregation.
Thioflavin-T (ThT) fluorometric assay was performed to investigate the effect of the test compounds on the self-aggregation of Aβ1–42. […] Each sample was prepared in quadruplicate, and the DMSO was always at 3%. To quantify amyloid fibril formation, the ThT fluorescence was measured through the bottom of the plate every 180 s at an excitation wavelength of 440 nm and emission wavelength of 490 nm, with the medium continuously shaking between measurements using a 96-well microplate reader (Synergy™ H4, BioTek Instruments, Inc., Winooski, VT, USA). […] The fluorescence intensities at the plateau in the absence and presence of the test compounds were averaged, and the average fluorescence of the corresponding wells at t = 0 h was subtracted.

| SMILES | Prediction of BBB penetration [1] | IC50 (EqBuChE) [µM] | IC50 (EeAChE) [µM] | inhibition at 10 µM (Aβ1–42) [%] | Log Pe [1] | EeAChE inhibitory activity in words (EeAChE) |
| --- | --- | --- | --- | --- | --- | --- |
| CC(C)NCC(O)COc1cccc2ccccc12 (stereo not shown) [Propranolol, reference compound] | CNS+ (CNS+, log Pe > −4.5, high permeability (i.e., can enter the CNS)) |  |  |  |  |  |
| O=C1c2ccccc2C(=O)N1CCCCCN1CCOCC1 [Compound 5, 2-(5-Morpholinopentyl)isoindoline-1,3-dione] |  | > 50 | 18.1 ± 0.402 |  |  |  |
| O=C1c2ccccc2C(=O)N1CCCCCN1CCc2ccccc2C1 [Compound 10, 2-(5-(3,4-dihydroisoquinolin-2(1H)-yl)pentyl)isoindoline-1,3-dione] |  | 5.31 ± 0.16 | 1.266 ± 0.011 |  |  |  |
| CCN(CC)CCCCCCCCn1ccc2ccccc21 [Compound 35, N,N-Diethyl-8-(1H-indol-1-yl)octan-1-amine] |  | 3.47 ± 0.1 | 9.56 ± 0.289 | 16.6 ± 2.74 |  |  |
| CCN(CC)CCCCCCCn1ccc2ccccc21 [Compound 34, N,N-Diethyl-7-(1H-indol-1-yl)heptan-1-amine] |  | 1.47 ± 0.593 | 22.2 ± 0.424 |  |  |  |
| O=C1c2ccccc2C(=O)N1CCCCCN1CCCC1 [Compound 1, 2-(5-(Pyrrolidin-1-yl)pentyl)isoindoline-1,3-dione] |  | > 50 | 0.781 ± 0.009 |  |  |  |
| O=C1c2ccccc2S(=O)(=O)N1CCCCCCCNCc1ccccc1F [Compound 41, 2-(7-(2-fluorobenzylamino)heptyl)benzo[d]isothiazol-3(2H)-one 1,1-dioxide] |  | 4.97 ± 0.127 | 0.735 ± 0.009 |  |  |  |
| CCN(CC)CCCCCCCN1CCc2ccccc2C1 [Compound 22, 7-(3,4-Dihydroisoquinolin-2(1H)-yl)-N,N-diethylheptan-1-amine] |  | 37.1 ± 0.878 | 17.3 ± 0.401 |  |  |  |
| CCN(CC)CCCCCCn1ccc2ccccc21 [Compound 33, N,N-Diethyl-6-(1H-indol-1-yl)hexan-1-amine] |  | 28.7 ± 0.723 | > 50 |  |  |  |
| CCN(CC)CCCCn1ccc2ccccc21 [Compound 31, N,N-diethyl-4-(1H-indol-1-yl)butan-1-amine] |  | 26 ± 0.813 | > 50 |  |  |  |
| CC(=O)[C@H]1CC[C@H]2[C@@H]3CCC4=CC(=O)CC[C@]4(C)[C@H]3CC[C@]12C [Progesterone, reference compound] | CNS+ (CNS+, log Pe > −4.5, high permeability (i.e., can enter the CNS)) |  |  |  |  |  |
| O=C1c2ccccc2C(=O)N1CCCCCCCCN1CCc2ccccc2C1 [Compound 13, 2-(8-(3,4-Dihydroisoquinolin-2(1H)-yl)octyl)isoindoline-1,3-dione] | CNS+ (CNS+, log Pe > −4.5, high permeability (i.e., can enter the CNS)) | 0.618 ± 0.009 | 0.76 ± 0.017 | 35.8 ± 5.39 | –4.2 |  |
| CCN(CC)CCCn1ccc2ccccc21 [Compound 30, N,N-diethyl-3-(1H-indol-1-yl)propan-1-amine] |  | > 50 | > 50 |  |  |  |
| O=C1c2ccccc2C(=O)N1CCCCCCCN1CCOCC1 [Compound 7, 2-(7-Morpholinoheptyl)isoindoline-1,3-dione] | CNS+ (CNS+, log Pe > −4.5, high permeability (i.e., can enter the CNS)) | > 50 | 4.11 ± 0.066 | 17.1 ± 6.13 | –4.2 |  |
| O=C1c2ccccc2S(=O)(=O)N1CCCCCNCc1ccccc1F [Compound 39, 2-(5-(2-fluorobenzylamino)pentyl)benzo[d]isothiazol-3(2H)-one 1,1-dioxide] | CNS+ (CNS+, log Pe > −4.5, high permeability (i.e., can enter the CNS)) | > 50 | 0.15 ± 0.003 | 12.3 ± 2.63 | –4.0 |  |
| CCN(CC)CCCCCCN1CCc2ccccc2C1 [Compound 21, 6-(3,4-Dihydroisoquinolin-2(1H)-yl)-N,N-diethylhexan-1-amine] |  | > 50 | > 50 |  |  |  |
| O=C1c2ccccc2C(=O)N1CCCCCCN1CCCC1 [Compound 2, 2-(6-(Pyrrolidin-1-yl)hexyl)isoindoline-1,3-dione] |  | > 50 | 0.643 ± 0.006 |  |  |  |
| O=C1c2ccccc2S(=O)(=O)N1CCCCCCCNCc1cccc(Cl)c1 [Compound 44, 2-(7-(3-chlorobenzylamino)heptyl)benzo[d]isothiazol-3(2H)-one 1,1-dioxide] |  | 2.46 ± 0.032 | 0.923 ± 0.012 |  |  |  |
| O=C1c2ccccc2C(=O)N1CCCCN1CCc2ccccc2C1 [Compound 9, 2-(4-(3,4-dihydroisoquinolin-2(1H)-yl)butyl)isoindoline-1,3-dione] |  | 12.82 ± 0.107 | 5.6 ± 0.087 |  |  |  |
| O=C1c2ccccc2C(=O)N1CCCCCCCCCCN1CCc2ccccc2C1 [Compound 14, 2-(10-(3,4-Dihydroisoquinolin-2(1H)-yl)decyl)isoindoline-1,3-dione] |  | 1.73 ± 0.038 | > 50 |  |  | not active |
| O=C1c2ccccc2C(=O)N1CCCCCCCN1CCc2ccccc2C1 [Compound 12, 2-(7-(3,4-Dihydroisoquinolin-2(1H)-yl)heptyl)isoindoline-1,3-dione] |  | 1.17 ± 0.027 | 0.688 ± 0.017 |  |  |  |
| O=C1c2ccccc2C(=O)N1CCCCCCCCN1CCOCC1 [Compound 8, 2-(8-Morpholinooctyl)isoindoline-1,3-dione] |  | > 50 | 4.5 ± 0.064 |  |  |  |
| CCN(CC)CCCCCCCCN1CCc2ccccc2C1 [Compound 23, 8-(3,4-Dihydroisoquinolin-2(1H)-yl)-N,N-diethyloctan-1-amine] |  | 14 ± 0.343 | 4.72 ± 0.149 | < 10 |  |  |
| Cn1c(=O)c2[nH]cnc2n(C)c1=O [Theophylline, reference compound] |  |  |  |  | –6.3 |  |
| CCN(CC)CCCCCN1CCc2ccccc2C1 [Compound 20, 5-(3,4-dihydroisoquinolin-2(1H)-yl)-N,N-diethylpentan-1-amine] |  | > 50 | > 50 |  |  |  |
| O=C1c2ccccc2S(=O)(=O)N1CCCCCCNCc1ccccc1F [Compound 40, 2-(6-(2-fluorobenzylamino)hexyl)benzo[d]isothiazol-3(2H)-one 1,1-dioxide] |  | > 50 | 1.14 ± 0.015 |  |  |  |
| O=C1c2ccccc2S(=O)(=O)N1CCCCCCNCc1cccc(Cl)c1 [Compound 43, 2-(6-(3-chlorobenzylamino)hexyl)benzo[d]isothiazol-3(2H)-one 1,1-dioxide] |  | 6.54 ± 0.163 | 0.596 ± 0.006 |  |  |  |
| O=C1c2ccccc2C(=O)N1CCCCCCN1CCOCC1 [Compound 6, 2-(6-Morpholinohexyl)isoindoline-1,3-dione] |  | > 50 | 17.2 ± 0.474 |  |  |  |
| O=C1c2ccccc2C(=O)N1CCCCCCCCCCCCN1CCc2ccccc2C1 [Compound 15, 2-(12-(3,4-Dihydroisoquinolin-2(1H)-yl)dodecyl)isoindoline-1,3-dione] |  | 3.66 ± 0.085 | > 50 |  |  | not active |
| CCN(CC)CCCCCn1ccc2ccccc21 [Compound 32, N,N-Diethyl-5-(1H-indol-1-yl)pentan-1-amine] |  | 22.6 ± 0.602 | > 50 |  |  |  |
